Measured values taken from patent US9376429B2, “Sodium channel blockers, preparation method thereof and use thereof” (Daewoong Pharmaceutical Co., Ltd., priority 2012, dated 2016).

Biological target: T1, sodium ion channel (Nav1.7) (Homo sapiens, UniProt Q15858)
T1 construct: host or cells: HEK293
Assay: Blocking effect against sodium ion channel (Nav1.7), IonFlux16 auto patch clamp, hNav1.7 HEK293 cells
Assay type: cell-based
Settings: peak current after 50 seconds treatment, eight concentrations
In short: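 HEK293 cells stably expressing human Nav1.7 were recorded by IonFlux16 automated patch clamp in extracellular solution (pH 7.45, final DMSO ≤0.3%). Peak current was measured after 50 s exposure to each of eight compound concentrations and expressed as percent inhibition relative to pre-compound current.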

T1 sequence (Q15858 whole entry): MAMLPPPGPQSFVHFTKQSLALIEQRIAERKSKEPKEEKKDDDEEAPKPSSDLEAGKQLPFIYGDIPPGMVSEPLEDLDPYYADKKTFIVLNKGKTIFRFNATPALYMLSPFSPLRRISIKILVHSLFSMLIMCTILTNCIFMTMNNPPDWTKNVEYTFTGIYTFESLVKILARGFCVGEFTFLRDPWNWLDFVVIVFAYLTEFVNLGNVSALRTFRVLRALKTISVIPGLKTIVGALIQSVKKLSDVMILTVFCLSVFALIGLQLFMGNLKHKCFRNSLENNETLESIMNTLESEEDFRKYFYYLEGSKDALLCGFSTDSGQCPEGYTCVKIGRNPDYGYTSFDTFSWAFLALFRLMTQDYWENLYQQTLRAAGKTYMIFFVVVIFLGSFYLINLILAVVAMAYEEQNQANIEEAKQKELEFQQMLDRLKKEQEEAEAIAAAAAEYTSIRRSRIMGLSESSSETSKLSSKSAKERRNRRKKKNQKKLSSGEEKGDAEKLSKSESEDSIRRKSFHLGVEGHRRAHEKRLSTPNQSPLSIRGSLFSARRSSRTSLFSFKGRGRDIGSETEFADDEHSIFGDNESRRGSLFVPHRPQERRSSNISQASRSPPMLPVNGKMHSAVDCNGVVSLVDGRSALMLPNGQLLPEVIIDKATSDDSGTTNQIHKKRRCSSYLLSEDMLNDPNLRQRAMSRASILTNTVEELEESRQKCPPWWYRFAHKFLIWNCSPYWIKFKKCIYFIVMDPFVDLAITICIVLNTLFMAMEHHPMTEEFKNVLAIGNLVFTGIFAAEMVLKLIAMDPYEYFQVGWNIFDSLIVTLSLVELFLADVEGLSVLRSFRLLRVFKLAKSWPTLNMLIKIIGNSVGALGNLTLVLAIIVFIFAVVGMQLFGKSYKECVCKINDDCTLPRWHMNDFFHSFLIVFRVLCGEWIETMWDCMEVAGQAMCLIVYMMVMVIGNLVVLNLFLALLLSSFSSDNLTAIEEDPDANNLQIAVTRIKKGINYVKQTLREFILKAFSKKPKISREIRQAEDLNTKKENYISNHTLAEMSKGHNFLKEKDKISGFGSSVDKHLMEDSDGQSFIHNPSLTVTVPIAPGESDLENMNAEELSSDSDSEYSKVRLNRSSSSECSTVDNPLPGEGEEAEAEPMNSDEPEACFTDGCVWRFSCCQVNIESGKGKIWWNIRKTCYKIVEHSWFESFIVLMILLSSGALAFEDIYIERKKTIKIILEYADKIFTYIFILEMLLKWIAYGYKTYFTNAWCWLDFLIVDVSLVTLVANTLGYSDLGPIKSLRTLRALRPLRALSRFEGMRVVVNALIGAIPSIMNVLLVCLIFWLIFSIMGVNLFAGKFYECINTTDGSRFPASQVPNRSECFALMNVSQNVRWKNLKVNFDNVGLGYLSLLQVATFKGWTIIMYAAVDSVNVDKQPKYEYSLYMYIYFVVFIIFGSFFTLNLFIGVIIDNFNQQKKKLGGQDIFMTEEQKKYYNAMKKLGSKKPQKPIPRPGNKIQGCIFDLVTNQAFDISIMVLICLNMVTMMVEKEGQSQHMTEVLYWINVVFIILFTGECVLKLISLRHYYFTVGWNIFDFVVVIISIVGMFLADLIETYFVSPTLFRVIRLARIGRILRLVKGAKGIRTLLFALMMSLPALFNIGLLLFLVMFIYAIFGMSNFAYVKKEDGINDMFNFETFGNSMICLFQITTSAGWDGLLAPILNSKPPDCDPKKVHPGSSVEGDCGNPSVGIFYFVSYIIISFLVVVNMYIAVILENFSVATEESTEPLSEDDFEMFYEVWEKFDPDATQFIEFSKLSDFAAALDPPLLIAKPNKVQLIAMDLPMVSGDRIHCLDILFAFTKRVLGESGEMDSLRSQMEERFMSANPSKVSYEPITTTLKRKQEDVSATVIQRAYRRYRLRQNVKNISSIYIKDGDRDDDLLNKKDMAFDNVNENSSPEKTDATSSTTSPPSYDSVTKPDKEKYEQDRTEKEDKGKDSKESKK

SMILES: Cn1nccc1-c1nc(-c2cccc(F)c2)ccc1Oc1ccc(S(=O)(=O)Nc2nccs2)cc1C#N [Example 117, 3-cyano-4-((6-(3-fluorophenyl)-2-(1-methyl-1H-pyrazol-5-yl)pyridin-3-yl)oxy)-N-(thiazol-2-yl)benzenesulfonamide]
- IC50: 0.051 to 0.1 µM

SMILES: Cn1nccc1-c1nc(-c2ccccc2F)ccc1Oc1ccc(S(=O)(=O)Nc2nccs2)cc1C#N [Example 118, 3-cyano-4-((6-(2-fluorophenyl)-2-(1-methyl-1H-pyrazol-5-yl)pyridin-3-yl)oxy)-N-(thiazol-2-yl)benzenesulfonamide]
- IC50: > 0.1 µM

SMILES: Cn1nccc1-c1nc(-c2ccsc2)ccc1Oc1ccc(S(=O)(=O)Nc2nccs2)cc1C#N [Example 119, 3-cyano-4-((2-(1-methyl-1H-pyrazol-5-yl)-6-(thiophen-3-yl)pyridin-3-yl)oxy)-N-(thiazol-2-yl)benzenesulfonamide]
- IC50: 0.051 to 0.1 µM

SMILES: Cn1cc(-c2ccc(Oc3ccc(S(=O)(=O)Nc4nccs4)cc3C#N)c(-c3ccnn3C)n2)cn1 [Example 120, 3-cyano-4-((6-(1-methyl-1H-pyrazol-4-yl)-2-(1-methyl-1H-pyrazol-5-yl)pyridin-3-yl)oxy)-N-(thiazol-2-yl)benzenesulfonamide]
- IC50: > 0.1 µM

SMILES: Cn1nccc1-c1nc(-c2cnoc2)ccc1Oc1ccc(S(=O)(=O)Nc2nccs2)cc1C#N [Example 121, 3-cyano-4-((6-(isoxazol-4-yl)-2-(1-methyl-1H-pyrazol-5-yl)pyridin-3-yl)oxy)-N-(thiazol-2-yl)benzenesulfonamide]
- IC50: > 0.1 µM

SMILES: Cn1cc(-c2nc(-c3cccc(F)c3)ccc2Oc2ccc(S(=O)(=O)Nc3nccs3)cc2C#N)cn1 [Example 122, 3-cyano-4-((6-(3-fluorophenyl)-2-(1-methyl-1H-pyrazol-4-yl)pyridin-3-yl)oxy)-N-(thiazol-2-yl)benzenesulfonamide]
- IC50: 0.051 to 0.1 µM

SMILES: Cn1cc(-c2nc(-c3cccnc3F)ccc2Oc2ccc(S(=O)(=O)Nc3nccs3)cc2C#N)cn1 [Example 123, 3-cyano-4-((2′-fluoro-6-(1-methyl-1H-pyrazol-4-yl)-[2,3′-bipyridin]-5-yl)oxy)-N-(thiazol-2-yl)benzenesulfonamide]
- IC50: > 0.1 µM

SMILES: Cn1cc(-c2nc(-c3ccc(F)nc3)ccc2Oc2ccc(S(=O)(=O)Nc3nccs3)cc2C#N)cn1 [Example 124, 3-cyano-4-((6′-fluoro-6-(1-methyl-1H-pyrazol-4-yl)-[2,3′-bipyridin]-5-yl)oxy)-N-(thiazol-2-yl)benzenesulfonamide]
- IC50: > 0.1 µM

SMILES: Cn1cc(-c2nc(-c3ccnc(F)c3)ccc2Oc2ccc(S(=O)(=O)Nc3nccs3)cc2C#N)cn1 [Example 125, 3-cyano-4-((2′-fluoro-6-(1-methyl-1H-pyrazol-4-yl)-[2,4′-bipyridin]-5-yl)oxy)-N-(thiazol-2-yl)benzenesulfonamide]
- IC50: > 0.1 µM

SMILES: Cn1cc(-c2nc(-c3ccc(F)nc3F)ccc2Oc2ccc(S(=O)(=O)Nc3nccs3)cc2C#N)cn1 [Example 126, 3-cyano-4-((2′,6′-difluoro-6-(1-methyl-1H-pyrazol-4-yl)-[2,3′-bipyridin]-5-yl)oxy)-N-(thiazol-2-yl)benzenesulfonamide]
- IC50: > 0.1 µM

SMILES: N#Cc1cc(S(=O)(=O)Nc2nccs2)ccc1Oc1ccc(-c2ccc(F)nc2F)nc1-c1ccoc1 [Example 127, 3-cyano-4-((2′,6′-difluoro-6-(furan-3-yl)-[2,3′-bipyridin]-5-yl)oxy)-N-(thiazol-2-yl)benzenesulfonamide]
- IC50: 0.051 to 0.1 µM

SMILES: Cn1nccc1-c1nc(-c2ccc(F)nc2F)ccc1Oc1ccc(S(=O)(=O)Nc2nccs2)cc1C#N [Example 128, 3-cyano-4-((2′,6′-difluoro-6-(1-methyl-1H-pyrazol-5-yl)-[2,3′-bipyridin]-5-yl)oxy)-N-(thiazol-2-yl)benzenesulfonamide]
- IC50: > 0.1 µM

SMILES: O=S(=O)(Nc1cscn1)c1cc(Cl)c(Oc2ccc(-c3ccc(F)nc3F)nc2-c2ccoc2)cc1F [Example 129, 5-chloro-4-((2′,6′-difluoro-6-(furan-3-yl)-[2,3′-bipyridin]-5-yl)oxy)-2-fluoro-N-(thiazol-4-yl)benzenesulfonamide]
- IC50: > 0.1 µM
